Assay results reported in article PMC7805408, “Filaggrin Polymorphisms and the Uptake of Chemicals through the Skin—A Human Experimental Study” (Environmental Health Perspectives, 2021).

Columns and labels:
[1] = Population toxicokinetic analysis of dermal absorption and disposition (three-compartment model, Monolix); type: in vivo, human; conditions: for Lag time (mean±SD): dermal absorption; for Lag time (mean±SD) / Absorption rate constant (mean±SD): unadjusted; for Absorption rate constant (mean±SD): dermal; for Rate constant K21 (mean ± SD): from the central to the peripheral compartment; for Rate constant K12 (mean ± SD): from the peripheral to the central compartment
Procedure: Dermal absorption and disposition were assessed by population toxicokinetic analysis. A three-compartment structural model representing skin and central and peripheral tissues was used (Figure 2). The skin compartment encompasses a lag time for skin penetration ( Tlag ) and an absorption rate constant ( ka ). Urinary excretion from the central compartment was described by an elimination rate constant ( ke ), and exchange between the central and peripheral compartments was described by two rate constants ( k12 and k21 ). All rate constants are first order.
Figure 2. Compartmental model used in the toxicokinetic analysis: lag time for skin penetration ( Tlag , h), first order skin absorption constant ( Ka , h-1), volume of central compartment (V, L), peripheral compartment (P) first order transfer rate constants ( k12 and k21 , h^−1 ), and first order elimination rate constant (k, h^−1 ).
The input data were the dermally applied dose (nmol) at time zero and the mid–time point (h) and the excretion rate (nmol/h) of each chemical in the urine samples. Subjects excluded from the AUC analysis were also excluded from the toxicokinetic analysis (one FLG null carrier and one wt carrier for oxybenzone).
The software Monolix (version 2019R2; Lixoft) was used to estimate the model parameters. The built-in statistical model consists of an observation model and an individual model based on the structural toxicokinetic model. The observational model was set to a normal distribution, and a residual error model included in the observational model was used as proposed by the software after initial analysis. A lognormally distributed random effect was added to all model parameters. Correlations between parameters were accounted for if proposed by the software. The different genotypes (FLG null/wt, and FLG null/wt CNV20–22/wt CNV23–24) were entered as categorical covariates.

[2] = tested on: aryl hydrocarbon receptor; parameters: method as in Medjakovic et al. 2014; conditions: in vitro; ref Medjakovic et al. 2014; cited from earlier work
[3] = in vivo, po; cited from earlier work
[4] = ref https://efsa.onlinelibrary.wiley.com/doi/pdf/10.2903/j.efsa.2006.61r; cited from earlier work
[5] = parameters: method as in Okereke et al. 1993; conditions: rats; ref Okereke et al. 1993; cited from earlier work
[6] = tested on: estrogen receptor 1, androgen receptor, and cytochrome P450 aromatase B; parameters: method as in Blüthgen et al. 2012; conditions: zebrafish, 84μg/L; ref Blüthgen et al. 2012; cited from earlier work
[7] = parameters: method as in Santamaria et al. 2020; conditions: ref Santamaria et al. 2020; cited from earlier work
[8] = ref http://www.popstoolkit.com/tools/HHRA/TDI_USEPA.aspx; cited from earlier work
[9] = FLG null carriers, null/CNV grouping
[10] = FLG null, null vs wt grouping (Table S4)
[11] = FLG null, null/CNV grouping (Table S9)
[12] = FLG wt, null vs wt grouping (Table S4)

Row | Structure (SMILES) | Absorption rate constant (mean ± SD), adjusted for BMI, age and sex ([1]; FLG null (Table S7)) | Lag time (mean ± SD), adjusted for BMI, age and sex ([1]; FLG null (Table S7)) | Excretion rate constant K (mean ± SD) ([1]; FLG null (Table S9)) | Lag time (mean±SD) [1, 9] | Absorption rate constant (mean±SD) [1, 9] | Dermal absorption rate constant (mean ± SD) [1, 10] | Lag time for dermal absorption (mean ± SD) [1, 10] | Volume of central compartment (mean ± SD) [1, 11] | Absorption rate constant (mean ± SD), adjusted for BMI, age and sex ([1]; FLG wt CNV20–22 (Table S7)) | Lag time (mean ± SD), adjusted for BMI, age and sex ([1]; FLG wt CNV20–22 (Table S7)) | Excretion rate constant K (mean ± SD) ([1]; FLG wt CNV20–22 (Table S9)) | Volume of central compartment (mean ± SD) ([1]; FLG wt CNV20–22 (Table S9)) | Lag time (mean±SD) ([1]; FLG wt CNV20–22 carriers) | Absorption rate constant (mean±SD) ([1]; FLG wt CNV20–22 carriers) | Absorption rate constant (mean ± SD), adjusted for BMI, age and sex ([1]; FLG wt CNV23–24 (Table S7)) | Lag time (mean ± SD), adjusted for BMI, age and sex ([1]; FLG wt CNV23–24 (Table S7)) | Excretion rate constant K (mean ± SD) ([1]; FLG wt CNV23–24 (Table S9)) | Volume of central compartment (mean ± SD) ([1]; FLG wt CNV23–24 (Table S9)) | Lag time (mean±SD) ([1]; FLG wt CNV23–24 carriers) | Absorption rate constant (mean±SD) ([1]; FLG wt CNV23–24 carriers) | other results
1 | Cc1cc(C)nc(Nc2ccccc2)n1 [Pyrimethanil, 4,6-dimethyl-N-phenyl-2-pyrimidinamine] | – | – | – | – | – | – | – | – | – | – | – | – | – | – | – | – | – | – | – | – | Dermal absorption rate constant higher for FLG null compared with wt carriers ([1]; human, in vivo): 18%; Mean dermal absorption rate constant higher for FLG null carriers than wt carriers with CNV23–24 ([1]; human, in vivo): 50%; aryl hydrocarbon receptor activity [2]: aryl hydrocarbon receptor agonist; Share of the compound found in urine as OH-pyrimethanil [3]: 80%; acute toxicity [4]: low acute toxicity
2 | COc1ccc(C(=O)c2ccccc2)c(O)c1 [Oxybenzone, (2-Hydroxy-4-methoxyphenyl)-phenylmethanone] | 0.22 ± 0.06 h⁻¹ | 0.14 ± 0.18 h | 0.05 ± 0.02 h⁻¹ | 0.07 ± 0.01 h | 0.23 ± 0.07 h⁻¹ | 0.29 ± 0.08 h⁻¹ | 0.10 ± 0.02 h | 71.5 ± 32.4 L | 0.20 ± 0.06 h⁻¹ | 0.04 ± 0.04 h | 0.05 ± 0.01 h⁻¹ | 81.5 ± 42.7 L | 0.04 ± 0.009 h | 0.22 ± 0.08 h⁻¹ | 0.13 ± 0.04 h⁻¹ | 0.13 ± 0.17 h | 0.06 ± 0.04 h⁻¹ | 103 ± 52.36 L | 0.23 ± 0.13 h | 0.13 ± .04 h⁻¹ | Dermal absorption rate constant (mean ± SD) [1, 12]: 0.22 ± 0.09 h⁻¹; Lag time for dermal absorption (mean ± SD) [1, 12]: 0.13 ± 0.07 h; Mean dermal absorption rate constant higher for FLG null carriers than wt carriers with CNV23–24 ([1]; Table 2): 77%; Rate constant K21 (mean ± SD) ([1]; FLG null (Table S9)): 0.01 ± 0.006 h⁻¹; Rate constant K21 (mean ± SD) ([1]; FLG wt CNV20–22 (Table S9)): 0.01 ± 0.008 h⁻¹; Rate constant K21 (mean ± SD) ([1]; FLG wt CNV23–24 (Table S9)): 0.007 ± 0.003 h⁻¹; Rate constant K12 (mean ± SD) ([1]; FLG null (Table S9)): 0.31 ± 0.02 h⁻¹; Rate constant K12 (mean ± SD) ([1]; FLG wt CNV20–22 (Table S9)): 0.31 ± 0.02 h⁻¹; Rate constant K12 (mean ± SD) ([1]; FLG wt CNV23–24 (Table S9)): 0.32 ± 0.02 h⁻¹; Dermal absorption rate constant higher for FLG null compared with wt carriers ([1]; null vs wt grouping (Table S4)): 32%; Share of what was found in urine in the form of the parent compound, free and conjugated with glucuronic acid [5]: About 50%; Expression of estrogen receptor 1, androgen receptor, and cytochrome P450 aromatase B [6]: decreased expression; Effect in mice [7]: affect fetal growth and sex ratio
3 | c1cc2ccc3cccc4ccc(c1)c2c34 [Pyrene, pyrene] | 0.23 ± 0.09 h⁻¹ | 0.89 ± 0.15 h | 0.17 ± 0.02 h⁻¹ | 0.91 ± 0.12 h | 0.16 ± 0.05 h⁻¹ | 0.17 ± 0.06 h⁻¹ | 0.88 ± 0.13 h | 876 ± 344 L | 0.23 ± 0.10 h⁻¹ | 1.06 ± 0.17 h | 0.18 ± 0.04 h⁻¹ | 954 ± 410 L | 1.06 ± 0.16 h | 0.14 ± 0.03 h⁻¹ | 0.14 ± 0.05 h⁻¹ | 1.34 ± 0.32 h | 0.18 ± 0.02 h⁻¹ | 1232 ± 541 L | 1.41 ± 0.29 h | 0.11 ± 0.03 h⁻¹ | Dermal absorption rate constant (mean ± SD) [1, 12]: 0.15 ± 0.06 h⁻¹; Lag time for dermal absorption (mean ± SD) [1, 12]: 1.20 ± 0.25 h; Mean dermal absorption rate constant higher for FLG null carriers than wt carriers with CNV23–24 ([1]; Table 2): 45%; Rate constant K21 (mean ± SD) ([1]; FLG null (Table S9)): 0.02 ± 0.0008 h⁻¹; Rate constant K21 (mean ± SD) ([1]; FLG wt CNV20–22 (Table S9)): 0.02 ± 0.0006 h⁻¹; Rate constant K21 (mean ± SD) ([1]; FLG wt CNV23–24 (Table S9)): 0.02 ± 0.0005 h⁻¹; Rate constant K12 (mean ± SD) ([1]; FLG null (Table S9)): 0.12 ± 0.04 h⁻¹; Rate constant K12 (mean ± SD) ([1]; FLG wt CNV20–22 (Table S9)): 0.12 ± 0.03 h⁻¹; Rate constant K12 (mean ± SD) ([1]; FLG wt CNV23–24 (Table S9)): 0.11 ± 0.02 h⁻¹; tolerable daily intake (TDI) [8]: 0.03 mg/kg
